This is an account of results in patent US20150297761A1, “PEPTIDIC STRUCTURES INCORPORATING AN AMINO ACID METAL COMPLEX AND APPLICATIONS IN MAGNETIC RESONANCE IMAGING” (THE GENERAL HOSPITAL CORPORATION, priority 2012, published 2015).

Common to all, as to type: physicochemical
A short description of data set [1]: Relaxivity of DOTAlaP derivatives (Example 6). Here is the method:
Relaxivity. Longitudinal relaxation times T1, were measured on Bruker Minispecs mq20 (20 MHz) and mq60 (60 MHz) using an inversion recovery method with 10 inversion time values ranging from 0.05×T1 to 5×Ti. Relaxivity was calculated from a linear plot of 3 different concentrations ranging from 0.25 to 1.0 mM versus the corresponding inverse relaxation times. The temperature was adjusted to 37° C.

Data set [2] can be described thus: 17O NMR of Gd complexes for determination of τM (Example 6). Conditions: pH 7.4, 10 mM PBS; for ^310 TM (ns) / ^310kex × 10^6 (s^−1): 310 K. Here is the method: ^17O NMR of Gd complexes for Determination of TM. ^17O NMR measurements of solutions were performed at 11.7 T on 350 μL samples contained in 5 mm standard NMR tubes on a Varian spectrometer. Temperature was regulated by air flow controlled by a Varian VT unit. ^17O transverse relaxation times of a >4 mM solution of Gd(3) and Gd(5a) (pH 7.4, 10 mM PBS buffer) were measured using a CPMG sequence. The concentration of the sample was determined by ICP-MS. Reduced relaxation rates, 1/T2r were calculated from the difference of 1/T2 between the sample and the water blank, and then divided by the mole fraction of coordinated water. The temperature dependence of 1/T2r was fit to a 4-parameter model as previously described. The Gd—O hyperfine-coupling constant, A/h, was assumed to be 3.8×10^6 rad/s, the Gd—O distance was assumed to be 3.1 Å.

Data set [3] can be described thus: Ligand challenge, equilibrium constant Kcomp of [Gd(DTPA)(H2O)]2− vs. L. Conditions: calculated from literature thermodynamic data. Here is the method:
As a means of assessing thermodynamic stability relative to other Gd(III)-complexes, [Gd(CyPic3A)(H2O)2]^− was challenged with DTPA in pH 7.4 25 mM Tris buffer. […] From this information it was possible to deduce equilibrium constants (Kcomp) for the competition reaction described in Equation 5,^31 where L=DTPA and L′=challenging chelator.
Equilibration of each solution was monitored by LC-MS. Relative distributions of [Gd(CyPic3A)(H2O)2]^− and CyPic3A were determined by integrating the corresponding absorbance traces at 280 nm. […] Kcomp values determined between [Gd(DTPA)(H2O)]^2− and various ligands were determined from conditional formation constants (Kcond)^4 values taken from the literature.^6-16 Direct comparisons were only made between Kcond values determined under identical conditions.

Data set [4] can be described thus: Relaxivity before and after disulfide bond reduction with TCEP. Conditions: for relaxivity after disulfide bond reduction: 20 eq. TCEP 30 minutes, T1 at 37° C., field not stated in the sentence (0.47 and 1.41 T examined); for relaxivity r1, cyclic versus linearized (reduced) multimer: 1.4 T; for relaxivity r1, cyclic versus linearized (reduced) multimer / Relaxivity per Gd, TCEP reduced / Relaxivity per Gd, cyclic: 37° C.; for Relaxivity per Gd, TCEP reduced: after TCEP reduction of the disulfide bond; for Relaxivity per Gd, cyclic: first value column, before reduction. The procedure: Investigation of the effect of tertiary structure on relaxivity, was done by examination of the effect of disulfide bond reduction on T1 at 0.47 and 1.41 T. T1 was measured for each sample at 37° C. and then the samples were incubated with 20 eq. TCEP for 30 minutes at room temperature to reduce the intramolecular disulfide bond and give the linear peptide. Subsequently, the T1 values were remeasured and concentrations re-determined in order to calculate relaxivities. […] Over all, reduction of the disulfide bond has only a slight effect on relaxivity (FIGS. 16-18 and Table 5).
Reduction of disulfide bond for relaxivity measurements. Complex solutions of purified, cyclic Gd complexes (concentrations of 0.1-0.025 mM, 110 μL) in HEPES buffer (50 mM, pH 7.4) were mixed with TCEP solution (20 mM in HEPES, 10 μL) and incubated room temperature. Reduction was checked by LCMS analysis and found to be complete after 30 minutes.
(§1) Measurement of relaxivity. Longitudinal relaxation times T1, were measured on Bruker Minispecs mq20 (0.47 T) and mq60 (1.41 T), a Bruker Bioscan horizontal bore 4.7 T, 9.4 T and 11.7 T Varian NMR spectrometers. T1 was measured by using an inversion recovery method with 10 inversion time values ranging from 0.05×T1 to 5×T1. Relaxivity was calculated from a linear plot of 3 or 4 different concentrations (ranging from 0.01 to 0.5 mM, depending on amount of compound isolated) versus the corresponding inverse relaxation times. All samples were measured at 37° C. using either the internal temperature control of the instrument (0.47, 1.41, 9.4 and 11.7 T) or a warm air blower (4.7 T). MS-325/HSA was prepared in a 4.5% w/v solution of HSA (0.66 mM) in PBS. The MS-325 concentration (in presence of HSA) ranged from 0.05 to 0.15 mM.

The nature of data set [5]: Relaxivity of Gd(DOTAla) metallopeptides and reference agents (T1 inversion recovery, 37° C.). Conditions: for Relaxivity per Gd, 400 MHz: 400 MHz (9.4 T); for r1 [0.47 T], per molecule / r1 [1.4 T], per molecule: per molecule (in parentheses). The procedure: Main numbers are given per Gd, numbers in parentheses are per molecule values. All numbers were determined at 37° C. using an inversion recovery sequence at concentrations ranging from 0.05 to 0.6 mM/Gd. Table 4 in Example 2 further expands the data of Table 1.
Per Gd relaxivities were determined by measuring T1 at 37° C. using 20, 60, 200, 400 and 500 MHz spectrometers. Relaxivities for MS-325 (with and without the presence of HSA) as a reference compound with a long τR and [Gd(HP-DO3A)(H2O)] as a reference for very short τR were also measured, and all the relaxivity data is tabulated in Table 4, together with results obtained from literature for the compounds with similar estimated τR. […] Additional rigidity through cyclization seems to provide only minor relaxivity increase for the dimeric and trimeric systems (Gd2C2 and Gd3C3).
as §1

As for “2,2′-(4-(2-carboxy-2-(2-(4-isobutylphenyl)propanamido)ethyl)-10-(phosphonomethyl)-1,4,7,10-tetraazacyclododecane-1,7-diyl)diacetic acid [Gd(5a)]”, in data set [1], the “r1 (20 MHz, 37° C., mM^−1s^−1)” value was found to be 5.4 mM⁻¹ s⁻¹ and the “r1 (60 MHz, 37° C., mM^−1s^−1)” value worked out at 4.1 mM⁻¹ s⁻¹. Moreover, in data set [2], the “^310 TM (ns)” value worked out at 6.36 ± 0.09 ns, the “^310kex × 10^6 (s^−1)” value is given as 158 ± 3 × 10^6 s^−1 and the “ΔH^‡” value is 5.492 ± 0.421 kcal/mol.
With “2,2′-(4-(2-carboxy-2-((1-(4-isobutylphenyl)ethyl)amino)ethyl)-10-(phosphonomethyl)-1,4,7,10-tetraazacyclododecane-1,7-diyl)diacetic acid [Gd(4b)]”, in data set [1], the “r1 (20 MHz, 37° C., mM^−1s^−1)” value was found to be 4 mM⁻¹ s⁻¹ and the “r1 (60 MHz, 37° C., mM^−1s^−1)” value was 3.8 mM⁻¹ s⁻¹.
Consider `CC1(N(CC(=O)O)CC(=O)O)CN(CC(=O)O)CCN(CC(=O)O)C1` [AAZTA], for which, in data set [3], the “Kcomp [Gd(DTPA)(H2O)]^2- vs. L pH 4” value is 0.091^9 and the “Kcomp, [Gd(DTPA)(H2O)]^2- vs. L pH 7.4” value is reported as “.001^9”.
With `NC(CN1CCN(CC(=O)O)CCN(CP(=O)(O)O)CCN(CC(=O)O)CC1)C(=O)O` (centres unmarked) [Gd(3), 2,2′-(4-(2-amino-2-carboxyethyl)-10-(phosphonomethyl)-1,4,7,10-tetra-azacyclododecane-1,7-diyl)diacetic acid], in data set [1], the “r1 (20 MHz, 37° C., mM^−1s^−1)” value turned out to be 6.4 mM⁻¹ s⁻¹ and the “r1 (60 MHz, 37° C., mM^−1s^−1)” value was 6.1 mM⁻¹ s⁻¹. In data set [2], the “^310 TM (ns)” value stood at 8.1 ± 0.25 ns, the “^310kex × 10^6 (s^−1)” value is 125 ± 4 × 10^6 s^−1 and the “ΔH^‡” value came to 3.23 ± 0.268 kcal/mol.
As for `CC(C)Cc1ccc(C(C)C(=O)NCCNC(=O)C(N)CN2CCN(CC(=O)O)CCN(CP(=O)(O)O)CCN(CC(=O)O)CC2)cc1` (centres unmarked) [Gd(5b), 2, 2′-(4-(2-amino-3-((2-(2-(4-isobutylphenyl)propanamido)ethyl)amino)-3-oxopropyl)-10-(phosphonomethyl)-1,4,7,10-tetraazacyclododecane-1,7-diyl)diacetic acid], in data set [1], the “r1 (20 MHz, 37° C., mM^−1s^−1)” value came out at 3.2 mM⁻¹ s⁻¹ and the “r1 (60 MHz, 37° C., mM^−1s^−1)” value amounted to 3.0 mM⁻¹ s⁻¹.
Regarding `O=C(O)CN1CCN(CC(=O)O)Cc2cccc(n2)CN(CC(=O)O)CC1` [PCTA], in data set [3], the “Kcomp [Gd(DTPA)(H2O)]^2- vs. L pH 4” value is listed as 0.064^10 and the “Kcomp, [Gd(DTPA)(H2O)]^2- vs. L pH 7.4” value is reported as 0.019^10.
“H2N—C(SH)PG-DOTAla(Gd)-G-DOTAla(Gd)-G-DOTAla(Gd)-GC(SH)CONH2 [Gd3C3-red]”: the “relaxivity after disulfide bond reduction” value in data set [4] is 11.5 mM⁻¹ s⁻¹.
As to “H2N—C(SH)PG-DOTAla(Gd)-G-DOTAla(Gd)-GC(SH)CONH2 [Gd2C2-red]”, in data set [4], the “relaxivity r1, cyclic versus linearized (reduced) multimer” value is 9 mM⁻¹ s⁻¹ and the “relaxivity after disulfide bond reduction” value was found to be 9 mM⁻¹ s⁻¹.
For the compound “H2N—C(S^cycl)PG-DOTAla(Gd)-G-DOTAla(Gd)-G-DOTAla(Gd)-GC(S^cycl)CONH2 [Gd3C3]”, in data set [5], the “Relaxivity per Gd, 20 MHz” value stood at 12.7 mM⁻¹ s⁻¹; the “Relaxivity per Gd, 60 MHz” value was 12.3 mM⁻¹ s⁻¹; the “Relaxivity per Gd, 200 MHz” value came to 9.2 mM⁻¹ s⁻¹; the “Relaxivity per Gd, 400 MHz” value was 6.6 mM⁻¹ s⁻¹. Besides, in data set [5], the “Relaxivity per Gd, 500 MHz” value was determined as 5.5 mM⁻¹ s⁻¹; the “r1 [0.47 T], per Gd” value turned out to be 13.38 mM⁻¹ s⁻¹; the “r1 [1.4 T], per Gd” value turned out to be 12.86 mM⁻¹ s⁻¹; the “r1 [0.47 T], per molecule” value turned out to be 40.14 mM⁻¹ s⁻¹. In addition, the “r1 [1.4 T], per molecule” value in data set [5] is 38.58 mM⁻¹ s⁻¹. In data set [4], the “Relaxivity per Gd, TCEP reduced” value stood at 11.5 mM⁻¹ s⁻¹ and the “Relaxivity per Gd, cyclic” value worked out at 12.3 mM⁻¹ s⁻¹.
As to “H2N—C(S^cycl)PG-DOTAla(Gd)-G-DOTAla(Gd)-GC(S^cycl)CON H2 [Gd2C2]”, in data set [5], the “Relaxivity per Gd, 20 MHz” value was 11.4 mM⁻¹ s⁻¹; the “Relaxivity per Gd, 60 MHz” value worked out at 10.6 mM⁻¹ s⁻¹; the “Relaxivity per Gd, 200 MHz” value was 7.5 mM⁻¹ s⁻¹; the “Relaxivity per Gd, 400 MHz” value came to 5.7 mM⁻¹ s⁻¹. In data set [5], the “Relaxivity per Gd, 500 MHz” value was 4.5 mM⁻¹ s⁻¹; the “r1 [0.47 T], per Gd” value is 13.1 mM⁻¹ s⁻¹; the “r1 [1.4 T], per Gd” value is 12.2 mM⁻¹ s⁻¹; the “r1 [0.47 T], per molecule” value was found to be 26.2 mM⁻¹ s⁻¹. In data set [5], the “r1 [1.4 T], per molecule” value came out at 24.4 mM⁻¹ s⁻¹. For the same compound, in data set [4], the “relaxivity r1, cyclic versus linearized (reduced) multimer” value was 10.5 mM⁻¹ s⁻¹; the “Relaxivity per Gd, TCEP reduced” value was 9 mM⁻¹ s⁻¹; the “Relaxivity per Gd, cyclic” value was determined as 10.5 mM⁻¹ s⁻¹.
For the compound “H2N—C(S^cycl)PG-DOTAla(Gd)-GC(S^cycl)CONH2 [GdC1]”, in data set [5], the “Relaxivity per Gd, 20 MHz” value was 8.3 mM⁻¹ s⁻¹; the “Relaxivity per Gd, 60 MHz” value was determined as 7.1 mM⁻¹ s⁻¹; the “Relaxivity per Gd, 200 MHz” value was 7.3 mM⁻¹ s⁻¹; the “Relaxivity per Gd, 400 MHz” value came to 5.1 mM⁻¹ s⁻¹. Further, in data set [5], the “Relaxivity per Gd, 500 MHz” value is 4.5 mM⁻¹ s⁻¹; the “r1 [0.47 T], per Gd” value is 8.3 mM⁻¹ s⁻¹; the “r1 [1.4 T], per Gd” value came to 6.7 mM⁻¹ s⁻¹. In addition, in data set [4], the “Relaxivity per Gd, TCEP reduced” value was 6.4 mM⁻¹ s⁻¹ and the “Relaxivity per Gd, cyclic” value turned out to be 7.1 mM⁻¹ s⁻¹.
